Data on 15 compounds can be found in PubChem BioAssay AID2060333 (Molecular Pharmacology Branch, DTP, NCI, 2025).

The experiment concerns 845751-090-R-J2-PDC tumor spheroid viability. Description: Anticancer human tumor 845751-090-R-J2-PDC patient-derived head and neck squamous carcinoma cell line growth inhibition [IpAb]. To be noted: spheroids with HUVEC and MSC; for viability, T/C: stronger effect = lower value. The text has this: Combinatorial screen of targeted agents with ipatasertib and abemaciclib in multi-cell type tumor spheroids
A high-throughput screen of multi-cell type tumor spheroids was designed to identify active combinations of targeted small molecules and ipatasertib or abemaciclib. Complex spheroids include a stromal component modeled by human endothelial cells (HUVEC) and fibroblasts modeled by human mesenchymal stem cells (MSCs). The concentration ranges selected for each drug and investigational agent were based upon clinically achievable concentrations if the clinical Cmax of the agent was known.
Compounds. The drugs and investigational agents: ipatasertib (NSC767898), abemaciclib(NSC768073), selumetinib (NSC741078), trametinib (758246), adavosertib (NSC754352), everolimus (NSC733504), sapanisertib (NSC764658), vemurafenib (NSC761431), venetoclax (NSC766270), copanlisib (NSC809693), apelisib (NSC765974), palbociblib (NSC758247), vemurafenib (NSC761431), dabrafenib (NSC764134), ravoxertinib (NSC781343), BMS-387032 (NSC767048), sotorasib (NSC818433), talazoparib (NSC767125) and afursertib (NSC778305), were obtained from the National Cancer Institute (NCI) Developmental Therapeutics Program Chemical Repository. The FDA-approved anticancer drug set is available from the NCI Developmental Therapeutics Program. […] The stock solutions were prepared in dimethyl sulfoxide (DMSO, Sigma-Aldrich, St. Louis, MO, cat. D2650) at 800-fold the tested concentration and stored at -70 degrees C prior to their use. All drugs and investigational agents were tested over a range starting from a high concentration at or near the clinical Cmax and decreasing in half-log increments. If the clinical Cmax for an agent had not been determined, the highest concentration tested was 10 microM.
NCI60 Cell Culture. NCI60 cell lines were obtained from the NCI Developmental Therapeutics Program Tumor Repository. For each lot of cells, the Repository performed Applied Biosystems AmpFLSTR Identifiler testing with PCR amplification to confirm consistency with the published Identifier STR profile for each cell line. Cells were kept in continuous culture for no more than 20 passages. The optimal seeding densities for each of the cell lines at each time point assessed were determined prior to performing the concentration response studies. Briefly, the NCI60 human tumor lines were grown as monolayers in RPMI 1640 medium supplemented with 10% FBS and 2 mmol/L L-glutamine.
An additional 9 lines were from the NCI60 cell line panel including MDA-MB-231 breast carcinoma, MDA-MB-468 breast carcinoma, MCF7 breast carcinoma, Hs578T breast carcinoma, MALME-3M melanoma, SK-MEL-2 melanoma, SK-OV-3 ovarian carcinoma, DU-145 prostate carcinoma, PC-3 prostate carcinoma, all cell lines along with major genetic alterations are listed on Table 2. Pooled donor human umbilical vein endothelial cells (HUVEC, Lonza, cat. CC-2519) and human mesenchymal stem cells (hMSC, Lonza, cat. PT-2501) were purchased from Lonza (Walkersville, MD).
PDMR cell lines were grown in complete medium (DC medium): Dulbecco's modified Eagle's medium (DMEM)/F12 supplemented with 5% fetal bovine serum (FBS), 2 mM L-glutamine, 100 U/mL penicillin and 100 µg/ml streptomycin, 0.4 µg/ml hydrocortisone, 10 ng/ml epidermal growth factor (EGF) recombinant human protein, 24 µg/mL adenine, and 0.1 mg/mL primocin. During culture from frozen stock vials, PDMR cells were cultured in the same medium containing 10 µM Y-27632 (see Table 3). The PDCs were cultured in complete DMEM/F12 media without 10 microM Y-27632 dihydrochloride for at least two passages prior to the screen. The pooled donor HUVEC and hMSC were cultured in endothelial cell growth medium 2 (PromoCell, Heidelberg, Germany, cat. C-22011) and mesenchymal stem cell growth medium 2 (PromoCell, cat. C-28009), respectively. For all experiments, HUVEC and hMSC were used at passages </=5.
[…]

Where “and” joins values, the source holds several entries; their conditions need not be identical. Equal entries are not always repeated.
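Further: spheroids exposed to compounds for 7 days before readout.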
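Wherever viability, T/C is given: CTG3D luminescence normalised so that 100% = DMSO vehicle control.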

Turning to `C=CC(=O)N1CCN(c2nc(=O)n(-c3c(C)ccnc3C(C)C)c3nc(-c4c(O)cccc4F)c(F)cc23)C(C)C1` (stereo not given), the viability, T/C by setting is: (compound 0.0316 µM) 84.1% and 78.2%; (compound 0.1 µM) 88.8% and 74.3%; (compound 0.316 µM) 98.2% and 105%; (compound 1 µM) 95.9% and 88.2%; (compound 3.16 µM) 82.6% and 77.3%; (compound 10 µM) 30.3% and 68.4%. Under “curve of compound”, the IC50 was 6490 nM and > 10000 nM.
Turning to `C=CCn1c(=O)c2cnc(Nc3ccc(N4CCN(C)CC4)cc3)nc2n1-c1cccc(C(C)(C)O)n1`, the viability, T/C is 98.5% and 92.5% (compound 0.0316 µM); 75.5% and 64.4% (compound 0.1 µM); 70.1% and 55.9% (compound 0.316 µM); 68.8% and 58.6% (compound 1 µM); 68.3% and 69.5% (compound 3.16 µM); 49.5% and 53.6% (compound 10 µM). Moreover, the IC50 (curve of compound) is more than 10000 nM.
In the case of `CC(=O)c1c(C)c2cnc(Nc3ccc(N4CCNCC4)cn3)nc2n(C2CCCC2)c1=O`, the viability, T/C by setting is: (compound 0.000949 µM) 86.5% and 84.4%; (compound 0.003 µM) 81.2% and 104%; (compound 0.00949 µM) 109% and 90.3%; (compound 0.03 µM) 133% and 91.8%; (compound 0.0949 µM) 112% and 101%; (compound 0.3 µM) 165% and 106%. For the same compound, where the note is “curve of compound”, the IC50 was more than 300 nM.
As to `CC(C)(C)c1cnc(CSc2cnc(NC(=O)C3CCNCC3)s2)o1`, the viability, T/C reads like this: (compound 0.00949 µM) 133% and 138%; (compound 0.03 µM) 147% and 141%; (compound 0.0949 µM) 50.3% and 77.6%; (compound 0.3 µM) 1.67% and 2.96%; (compound 0.949 µM) 1.36% and 1.78%; (compound 3 µM) 0.89% and 2.1%. Where the note is “curve of compound”, the IC50 is 95.6 nM and 145 nM.
Consider `CC(C)NCC(C(=O)N1CCN(c2ncnc3c2C(C)CC3O)CC1)c1ccc(Cl)cc1` (stereo not given), for which the viability, T/C was 30.2% [middle of 13 runs] (compound 1 µM), 23.3% [middle of 13 runs] (compound 3.16 µM) and 14.6% [middle of 13 runs] (compound 10 µM).
`CC(C)n1nc(-c2ccc3oc(N)nc3c2)c2c(N)ncnc21`: the viability, T/C (compound 0.000316 µM) was 108% and 77.2%; the viability, T/C (compound 0.001 µM) is 81.4% and 72.8%; the viability, T/C (compound 0.00316 µM) is 58.9% and 50.4%; the viability, T/C (compound 0.01 µM) was 57.2% and 53.4%; the viability, T/C (compound 0.0316 µM) was 49.8% and 32.9%; the viability, T/C (compound 0.1 µM) was 26% and 20.3%. Also, under “curve of compound”, the IC50 is 16.2 nM and 7.32 nM.
For the compound `CC1(C)CCC(CN2CCN(c3ccc(C(=O)NS(=O)(=O)c4ccc(NCC5CCOCC5)c([N+](=O)[O-])c4)c(Oc4cnc5[nH]ccc5c4)c3)CC2)=C(c2ccc(Cl)cc2)C1`, the viability, T/C reads like this: (compound 0.0316 µM) 124% and 120%; (compound 0.1 µM) 111% and 103%; (compound 0.316 µM) 145% and 85.5%; (compound 1 µM) 198% and 117%; (compound 3.16 µM) 221% and 138%; (compound 10 µM) 37.6% and 25.7%. Besides, the 50% inhibitory concentration (IC50) (curve of compound) was 8900 nM and 7240 nM.
In the case of `CCCS(=O)(=O)Nc1ccc(F)c(C(=O)c2c[nH]c3ncc(-c4ccc(Cl)cc4)cc23)c1F`, the viability, T/C is 134% and 78.5% (compound 0.0316 µM); 120% and 76.5% (compound 0.1 µM); 111% and 63% (compound 0.316 µM); 84.5% and 45.3% (compound 1 µM); 46.7% and 33.6% (compound 3.16 µM); 50.4% and 29.4% (compound 10 µM). Also, the half-maximal inhibitory concentration (IC50) (curve of compound) is 5550 nM and 737 nM.
Consider `CCN1CCN(Cc2ccc(Nc3ncc(F)c(-c4cc(F)c5nc(C)n(C(C)C)c5c4)n3)nc2)CC1`, for which the concentration for half-maximal inhibition (IC50) (compound alone, run of 05/18/2021) was more than 1000 nM.
Turning to `COc1c(OCCCN2CCOCC2)ccc2c3n(c(=NC(=O)c4cnc(N)nc4)nc12)CCN3`, the viability, T/C was 85.1% and 76.3% (compound 0.00316 µM); 62.6% and 60.3% (compound 0.01 µM); 36.9% and 35.4% (compound 0.0316 µM); 19.8% and 22.2% (compound 0.1 µM); 13.8% and 16.1% (compound 0.316 µM); 4.09% and 9.06% (compound 1 µM). In addition, the IC50 (curve of compound) is 17.6 nM and 16.1 nM.
In the case of `Cc1nc(NC(=O)N2CCCC2C(N)=O)sc1-c1ccnc(C(C)(C)C(F)(F)F)c1` (stereo not given), the viability, T/C by setting is: (compound 0.0316 µM) 79.1% and 55.6%; (compound 0.1 µM) 54.8% and 65.7%; (compound 0.316 µM) 36.8% and 46.5%; (compound 1 µM) 25.4% and 25%; (compound 3.16 µM) 17.9% and 18.6%; (compound 10 µM) 10.7% and 14.8%. For the same compound, under “curve of compound”, the IC50 is 138 nM and 262 nM.
With `Cn1cnc2c(F)c(Nc3ccc(Br)cc3Cl)c(C(=O)NOCCO)cc21`, the viability, T/C by setting is: (compound 0.00949 µM) 107% and 165%; (compound 0.03 µM) 94.5% and 174%; (compound 0.0949 µM) 75% and 136%; (compound 0.3 µM) 82.8% and 125%; (compound 0.949 µM) 80.4% and 122%; (compound 3 µM) 65.8% and 67.1%. Moreover, the IC50 (curve of compound) was more than 3000 nM.
`Cn1ncc(Cl)c1-c1cc(C(=O)NC(CN)Cc2cccc(F)c2)sc1Cl` (stereo not given): the viability, T/C (compound 0.0316 µM) was 105% and 86.6%; the viability, T/C (compound 0.1 µM) is 76.1% and 51.8%; the viability, T/C (compound 0.316 µM) is 52.6% and 32.5%; the viability, T/C (compound 1 µM) is 38.7% and 29.1%; the viability, T/C (compound 3.16 µM) was 16% and 10.7%; the viability, T/C (compound 10 µM) is 1.14% and 1.09%. Moreover, the 50% inhibitory concentration (IC50) (curve of compound) was 466 nM and 139 nM.
`Cn1nccc1Nc1nccc(-c2ccn(C(CO)c3ccc(Cl)c(F)c3)c(=O)c2)n1` (stereo not given): the viability, T/C is 128% and 195% (compound 0.0316 µM); 141% and 196% (compound 0.1 µM); 155% and 220% (compound 0.316 µM); 168% and 256% (compound 1 µM); 149% and 198% (compound 3.16 µM); 85.6% and 134% (compound 10 µM). Also, the IC50 (curve of compound) was more than 10000 nM.
Turning to `Cn1ncnc1[C@H]1c2n[nH]c(=O)c3cc(F)cc(c23)N[C@@H]1c1ccc(F)cc1`, the viability, T/C is 81.7% and 97.4% (compound 0.000316 µM); 80% and 90.8% (compound 0.001 µM); 137% and 113% (compound 0.00316 µM); 105% and 91.3% (compound 0.01 µM); 100% and 106% (compound 0.0316 µM); 96.4% and 111% (compound 0.1 µM). Moreover, the half-inhibitory concentration (IC50) (curve of compound) was more than 100 nM.

The term viability, T/C denotes the result in the treated group divided by that in the control group, in per cent. A word on the IC50: it is the concentration that inhibits the measured activity by half.
